Experimental data reported in ChEMBL document CHEMBL1154758 (J Med Chem, 2010).

Legend:
[1] = target: Carbonic anhydrase 3 (Homo sapiens, UniProt P07451)
[2] = target: Carbonic anhydrase 13 (Homo sapiens, UniProt Q8N1Q1)
[3] = target: T1, Carbonic anhydrase 15 (Mus musculus, UniProt Q99N23)
T1 sequence (Q99N23 whole entry): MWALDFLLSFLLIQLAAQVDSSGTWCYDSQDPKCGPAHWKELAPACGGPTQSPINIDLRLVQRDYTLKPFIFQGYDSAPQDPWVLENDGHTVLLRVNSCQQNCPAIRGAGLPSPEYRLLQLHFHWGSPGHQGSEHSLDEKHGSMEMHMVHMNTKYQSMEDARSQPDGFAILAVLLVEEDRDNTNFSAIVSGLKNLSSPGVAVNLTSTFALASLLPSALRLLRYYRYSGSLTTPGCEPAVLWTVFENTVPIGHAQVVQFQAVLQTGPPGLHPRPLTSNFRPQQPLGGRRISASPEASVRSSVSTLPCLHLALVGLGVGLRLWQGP

[4] = target: Carbonic anhydrase 7 (Homo sapiens, UniProt P43166); experiment: Inhibition of human recombinant CA7 by stopped flow CO2 hydrase assay
[5] = target: Carbonic anhydrase 12 (Homo sapiens, UniProt O43570); experiment: Inhibition of human recombinant CA12 by stopped flow CO2 hydrase assay
[6] = target: Carbonic anhydrase 1 (Homo sapiens, UniProt P00915)
[7] = target: Carbonic anhydrase 4 (Homo sapiens, UniProt P22748)
[8] = target: Carbonic anhydrase 5A, mitochondrial (Homo sapiens, UniProt P35218)
[9] = target: Carbonic anhydrase 5B, mitochondrial (Homo sapiens, UniProt Q9Y2D0)
[10] = target: Carbonic anhydrase 6 (Homo sapiens, UniProt P23280)
[11] = target: Carbonic anhydrase 9 (Homo sapiens, UniProt Q16790)
[12] = target: Carbonic anhydrase 14 (Homo sapiens, UniProt Q9ULX7)
Carbonic anhydrase 14, sequence (Q9ULX7 whole entry): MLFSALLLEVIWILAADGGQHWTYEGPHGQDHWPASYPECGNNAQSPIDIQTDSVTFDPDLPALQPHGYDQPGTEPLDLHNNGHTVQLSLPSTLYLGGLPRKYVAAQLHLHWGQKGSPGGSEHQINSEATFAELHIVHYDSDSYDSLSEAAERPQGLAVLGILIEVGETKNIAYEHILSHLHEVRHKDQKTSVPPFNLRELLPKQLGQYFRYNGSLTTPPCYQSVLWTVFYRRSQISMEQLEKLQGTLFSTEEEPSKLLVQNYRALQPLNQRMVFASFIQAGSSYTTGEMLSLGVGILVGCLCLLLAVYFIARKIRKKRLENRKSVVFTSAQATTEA

Carbonic anhydrase 3, sequence (P07451 whole entry): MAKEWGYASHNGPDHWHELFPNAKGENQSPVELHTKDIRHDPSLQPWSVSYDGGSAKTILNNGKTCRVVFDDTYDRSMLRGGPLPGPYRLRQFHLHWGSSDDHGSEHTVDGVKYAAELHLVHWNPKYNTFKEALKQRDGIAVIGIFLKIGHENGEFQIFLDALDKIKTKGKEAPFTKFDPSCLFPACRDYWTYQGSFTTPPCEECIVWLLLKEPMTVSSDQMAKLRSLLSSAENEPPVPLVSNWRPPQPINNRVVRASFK
Carbonic anhydrase 13, sequence (Q8N1Q1 whole entry): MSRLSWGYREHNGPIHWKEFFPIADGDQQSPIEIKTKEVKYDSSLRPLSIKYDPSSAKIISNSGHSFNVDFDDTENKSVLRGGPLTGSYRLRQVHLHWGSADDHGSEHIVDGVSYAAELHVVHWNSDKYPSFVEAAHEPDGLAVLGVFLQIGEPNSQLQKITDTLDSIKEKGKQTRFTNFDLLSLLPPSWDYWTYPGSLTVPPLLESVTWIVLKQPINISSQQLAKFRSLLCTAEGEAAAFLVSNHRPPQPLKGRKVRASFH
Carbonic anhydrase 6, sequence (P23280 whole entry): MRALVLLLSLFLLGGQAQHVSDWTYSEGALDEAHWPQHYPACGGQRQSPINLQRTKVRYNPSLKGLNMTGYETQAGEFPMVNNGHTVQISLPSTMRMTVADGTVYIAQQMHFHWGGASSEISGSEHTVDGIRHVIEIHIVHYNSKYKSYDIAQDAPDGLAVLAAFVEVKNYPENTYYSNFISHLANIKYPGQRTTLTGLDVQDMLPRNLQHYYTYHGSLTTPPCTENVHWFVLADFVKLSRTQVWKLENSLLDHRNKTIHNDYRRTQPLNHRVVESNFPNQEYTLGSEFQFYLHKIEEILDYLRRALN
Carbonic anhydrase 4, sequence (P22748 whole entry): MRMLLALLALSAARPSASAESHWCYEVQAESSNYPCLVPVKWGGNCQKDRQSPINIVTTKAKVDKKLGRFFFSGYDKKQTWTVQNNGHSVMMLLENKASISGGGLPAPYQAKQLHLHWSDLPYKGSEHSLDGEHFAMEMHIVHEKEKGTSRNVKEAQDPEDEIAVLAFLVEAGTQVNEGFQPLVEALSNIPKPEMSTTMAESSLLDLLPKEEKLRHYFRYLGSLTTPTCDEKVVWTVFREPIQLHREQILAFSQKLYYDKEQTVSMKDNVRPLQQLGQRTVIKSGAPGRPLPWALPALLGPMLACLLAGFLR
Carbonic anhydrase 1, sequence (P00915 whole entry): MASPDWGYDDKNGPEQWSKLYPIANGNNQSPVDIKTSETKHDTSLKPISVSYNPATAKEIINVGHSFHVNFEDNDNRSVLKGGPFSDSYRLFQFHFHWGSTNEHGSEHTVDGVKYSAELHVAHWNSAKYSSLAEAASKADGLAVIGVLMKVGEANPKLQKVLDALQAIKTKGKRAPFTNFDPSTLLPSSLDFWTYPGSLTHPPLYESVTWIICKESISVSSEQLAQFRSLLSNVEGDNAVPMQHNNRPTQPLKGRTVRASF
Carbonic anhydrase 12, sequence (O43570 whole entry): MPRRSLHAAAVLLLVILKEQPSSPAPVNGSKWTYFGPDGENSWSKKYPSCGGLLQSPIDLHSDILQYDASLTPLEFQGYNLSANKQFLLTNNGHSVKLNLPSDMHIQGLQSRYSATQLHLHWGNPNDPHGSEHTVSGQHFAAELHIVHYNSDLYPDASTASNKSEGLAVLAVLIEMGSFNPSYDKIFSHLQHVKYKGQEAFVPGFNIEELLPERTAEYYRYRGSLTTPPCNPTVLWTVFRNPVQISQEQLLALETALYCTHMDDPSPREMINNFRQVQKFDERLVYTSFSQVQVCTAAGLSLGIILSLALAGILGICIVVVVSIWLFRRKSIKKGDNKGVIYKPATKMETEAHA
Carbonic anhydrase 5B, mitochondrial, sequence (Q9Y2D0 whole entry): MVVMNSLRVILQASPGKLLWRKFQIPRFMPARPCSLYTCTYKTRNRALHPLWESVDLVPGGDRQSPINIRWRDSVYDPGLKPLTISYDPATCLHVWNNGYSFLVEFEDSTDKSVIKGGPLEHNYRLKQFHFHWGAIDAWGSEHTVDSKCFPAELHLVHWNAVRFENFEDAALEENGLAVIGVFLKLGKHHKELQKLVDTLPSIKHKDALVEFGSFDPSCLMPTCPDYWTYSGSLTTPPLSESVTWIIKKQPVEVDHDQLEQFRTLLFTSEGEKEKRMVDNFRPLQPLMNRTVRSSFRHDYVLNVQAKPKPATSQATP
Carbonic anhydrase 5A, mitochondrial, sequence (P35218 whole entry): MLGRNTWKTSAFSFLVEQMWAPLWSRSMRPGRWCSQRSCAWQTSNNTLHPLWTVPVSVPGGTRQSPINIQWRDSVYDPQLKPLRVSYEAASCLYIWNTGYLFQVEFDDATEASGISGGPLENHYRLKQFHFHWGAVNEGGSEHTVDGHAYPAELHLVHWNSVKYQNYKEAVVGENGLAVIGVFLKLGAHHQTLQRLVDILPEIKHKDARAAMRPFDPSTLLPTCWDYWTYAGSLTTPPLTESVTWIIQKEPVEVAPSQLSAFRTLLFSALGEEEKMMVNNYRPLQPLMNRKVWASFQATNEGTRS
Carbonic anhydrase 7, sequence (P43166 whole entry): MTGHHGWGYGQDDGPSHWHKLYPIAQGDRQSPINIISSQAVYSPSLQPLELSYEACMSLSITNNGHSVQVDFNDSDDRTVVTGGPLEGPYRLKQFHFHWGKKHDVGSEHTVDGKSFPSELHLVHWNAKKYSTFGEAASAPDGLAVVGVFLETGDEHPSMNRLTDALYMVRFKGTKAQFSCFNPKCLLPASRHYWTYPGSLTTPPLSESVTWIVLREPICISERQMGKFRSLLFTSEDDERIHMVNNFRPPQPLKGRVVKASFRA

Row | SMILES | Ki [1] | Ki [2] | Ki [3] | Ki [4] | Ki [5] | Ki [6] | Ki [7] | Ki [8] | Ki [9] | Ki [10] | Ki [11] | Ki [12]
1 | Nc1ccc(S(N)(=O)=O)cc1 [SULFANILAMIDE] | 988 nM | 32 nM | – | – | – | – | – | – | – | – | – | –
2 | COc1cc2oc(=O)ccc2cc1[C@@H](O)CC(C)C | – | – | 93100 nM | – | – | – | – | – | – | – | – | –
3 | COC[C@@H](NC(C)=O)C(=O)NCc1ccccc1 [LACOSAMIDE] | 374 nM | 1210 nM | 461 nM | 4450 nM | 3710 nM | 362 nM | 525 nM | 4570 nM | 341 nM | 412 nM | 353 nM | 473 nM
